Reference: US10973912B2, “Treatment for myopathy” (Children's Medical Center Corporation, priority 2015, dated 2021)
Entries after “also recorded” stand apart in the source; their conditions may differ.

Experiments:
[1] = test system: ryr1b homozygous mutant zebrafish; experiment: Secondary screen of individual chemicals in ryr1b zebrafish (vitality: survival and touch-evoked escape behavior); format: in vivo, zebrafish (Danio rerio); set-up: key: vitality score, theoretical range 0–60; DMSO controls expected ~50; settings: 2.0 μg/mL from 1 dpf, scored at 5 dpf; average of two replicates of 20 larvae from heterozygous ryr1b matings; score=(#Dead*0)+(#ryr1b*1)+(#Moderate*2)+(#Wild-type*3), max 60, expected 50 in DMSO controls
Procedure: Each scored compound represents an average of two replicates, consisting of 20 larvae from heterozygous ryr1b matings (n=40). Larvae obtained from wild-type AB matings served as positive controls. […] Significance was determined by pairwise comparisons between control and experimental pools using a Student's t-test. Vitality score=(#Dead*0)+(#ryr1b*1)+(#Moderate*2)+(#Wild-type*3). Standard deviations shown for positive and negative controls were calculated based on results from 5 and 21 independent experiments, respectively.
Primary screen. For the primary screen, twenty embryos (1 dpf) resulting from a mating of heterozygous ryr1b zebrafish were manually sorted into 48-well plates containing 250 μL embryo 1×E3 medium (5.0 mM NaCl, 0.17 mM KCl, 0.33 mM CaCl2*2H2O, 0.33 mM MgSO4*7H2O) and four pooled chemicals from the Prestwick2 chemical library. Each chemical pool was assayed in duplicate using embryos from two independent clutches, for a total of 24 distinct pools tested per plate (FIG. 1). The chemicals were dissolved to a final concentration of 2.0 μg/mL and 0.4% DMSO, which is similar to concentrations other groups have used in zebrafish studies^37,38. As a negative control, twenty embryos from each clutch were cultured without chemicals in vehicle only (0.4% DMSO) (FIG. 1). Larvae obtained from wild-type (Oregon AB) matings served as positive controls in separate plates. All plates containing embryos were incubated at 28.5° C. and maintained as initially treated for 5 days. Dead embryos were removed from wells when observed during the first 4 days of the study. On day 5, dead or “motion-dead” larvae were scored alongside living larvae.
At 5 dpf, pools were scored for their ability to improve the survival and touch-evoked escape behaviors of ryr1b homozygous mutants using the following numeric scoring system: 3=4-6 cm, fast (wild-type); 2=2-4 cm (moderate); 1=<2 cm, slow (ryr1b); 0=no movement (dead) (FIG. 2A). Survival, swimming, and combined endpoints of the primary screen were then examined for their ability to distinguish positive from negative controls. […] Taking into account both experimental replicates (n=40), hit pools contained at least 37 alive larvae on day 5 (i.e., 70-100% of the larvae assumed to be ryr1b mutants survived the duration of the study), and were selected for analysis in a secondary screen.
In the secondary screen, hit pools were separated and tested as 68 individual chemicals. Screening was performed precisely as described for the primary screen with few modifications. Embryos were raised in wells containing 750 μL 1×E3 medium, as opposed to 250 μL, although the final concentration of each compound was maintained at 2.0 μg/mL. […] Vitality scores, weighting survival and swimming ratios appropriately, were calculated as (#Dead*0)+(#ryr1b*1)+(#Moderate*2)+(#Wild-type*3). Theoretical maximum and minimum scores were 60 and 0, respectively, with an expected score of 50 in DMSO-treated controls. Secondary screen hits (P<0.05), considered “candidate” compounds, are currently being examined in dose-response and long-term studies.
The second tier of the chemical screen was performed two years following the primary screen, with a fully established ryr1b^+/− line. Healthier clutches tended to result in better survival of homozygous ryr1b mutants. Median mutant life spans more accurately adhered to the 7-15 day estimate previously published^30. Therefore, in the secondary screen, hit chemical pools were separated into individual compounds and each of 68 total compounds was examined for its ability to positively influence both ryr1b survival and motor function (referred to in combination as “vitality”). […] These included two anti-inflammatory agents (sulfasalazine and ketoprofen), two monoamine oxidase inhibitors (pargyline hydrochloride and tranylcypromine hydrochloride), and two ion channel modulators (metolazone and nimodipine).

ryr1b mutants = experiment: Kaplan-Meier survival of ryr1b mutants; format: in vivo, zebrafish (Danio rerio); settings: 10 μg/mL from 1 to 50 dpf
Procedure: Kaplan-Meier survival curves of ryr1b mutants treated with either DMSO or NIF (10 μg/mL) from 1 to 50 dpf. Mutants were sorted from unaffected controls at 5 dpf using a touch-evoked escape behavior assay. Untreated fish all died by 35 days of life. Median survival of DMSO-versus NIF-treated mutants was 15.0 and 13.0 days, respectively.
In addition to their muscular defects, ryr1b mutants die prematurely^30. To examine whether long-term treatment with NIF positively impacts the life span of ryr1b mutants, affected larvae (selected at 5 dpf by touch-evoked escape behavior assay) were treated with compound from 1 to 50 dpf.

O=C(N/N=C/c1ccc([N+](=O)[O-])o1)c1ccc(O)cc1 [Nifuroxazide]
Vitality Score [1]: 52.0
survival of ryr1b mutants (ryr1b mutants; listed as NIF): did not significantly differ; also recorded: two affected fish treated with NIF survived until termination of the study
median survival (ryr1b mutants; ryr1b mutants, DMSO 15.0 days, log-rank P=0.5): 13.0 days
